Values quoted from earlier work as cited in US10335381B2, “Stabilized formulation of triamcinolone acetonide” (University of Mississippi, priority 2006, dated 2019).

Settings: Gupta 1983

For `CC1(C)O[C@@H]2C[C@H]3[C@@H]4CCC5=CC(=O)C=C[C@]5(C)[C@@]4(F)[C@@H](O)C[C@]3(C)[C@]2(C(=O)CO)O1` [TAA, triamcinolone acetonide], the “optimum pH for TAA stability in aqueous solution” value is listed as “about 3.4”.
